Legend:
[1] = system: patients with hyperkinetic movement disorders including ethanol responsive myoclonus and essential tremor; conditions: five patients, open label; cited from earlier work
[2] = Plasma pharmacokinetics of sodium oxybate given orally (background and definition statements); conditions: human, oral
[3] = in man, given orally; cited from earlier work

**Q.** Which “blinded ratings of ethanol responsive myoclonus and tremor” value [1] does the source give for `O=C(O)CCCO` [sodium oxybate, Sodium gamma-hydroxybutyrate] here?
**A.** dose-dependent improvements

**Q.** And the tolerability [1]?
**A.** tolerated at doses that provided clinical benefit

**Q.** What about the Tmax [2] of the same molecule?
**A.** 30 to 150 min

**Q.** What about the half-life [2] of the same molecule?
**A.** 24 to 54 min

**Q.** And the plasma half-life [3]?
**A.** about 45 minutes

From patent US9795567B2, “Immediate release formulations and dosage forms of gamma-hydroxybutyrate” (Jazz Pharmaceuticals, Inc., priority 2008, dated 2017)
